Converted amounts (≈) assume the structure as drawn. Where two headings read alike, the source gives them in different places. Starred links: 1 amine or outer side, 2 acyl side, 3 side chain; linkers in the order of their positions; H or OH if unused. Positions of bridges follow the written chain, without caps; N, C: chain ends. Non-standard residues stand in square brackets, D forms with d. Residues, ends and D or L forms follow the SMILES beside them. *: point of attachment. hTyr(3S-OH,4S-OH,3'-OSO3H) = N[C@H](C(=O)O)[C@H](O)[C@@H](O)c1ccc(O)c(OS(=O)(=O)O)c1; pTerphenylCO(4''-OnC5H11) = CCCCCOc1ccc(-c2ccc(-c3ccc(C(=O)*)cc3)cc2)cc1; Orn(4R-OH,5R-OH) = O=C([C@H](C[C@@H](O)[C@@H](O)N[*:3])N[*:1])[*:2]; hTyr(3S-OH,4S-OH) = N[C@H](C(=O)O)[C@H](O)[C@@H](O)c1ccc(O)cc1; Pro(3S-OH,4S-Me) = C[C@H]1CN[C@H](C(=O)O)[C@H]1O; X1 = CCCCCOc1ccc(-c2cc(-c3ccc(C(=O)*)cc3)no2)cc1; Gln(3R-OH) = NC(=O)C[C@@H](O)[C@H](N)C(=O)O; Hyp = O=C(O)[C@@H]1C[C@@H](O)CN1
Columns and labels:
[1] = system: Aspergillus niger 1133m; assay: Sensititre YeastOne antifungal susceptibility test; format: cell-based
[2] = system: A. fumigatus 390m; assay: Sensititre YeastOne antifungal susceptibility test; format: cell-based; conditions: Aspergillus fumigatus
[3] = system: A. terreus 497; assay: Sensititre YeastOne antifungal susceptibility test; format: cell-based; conditions: Aspergillus terreus
[4] = system: Candida albicans 1402; assay: Sensititre YeastOne antifungal susceptibility test; format: cell-based
[5] = system: C. glabrata 1402; assay: Sensititre YeastOne antifungal susceptibility test; format: cell-based; conditions: Nakaseomyces glabratus
[6] = system: C. krusei 1447; assay: Sensititre YeastOne antifungal susceptibility test; format: cell-based; conditions: Pichia kudriavzevii
[7] = system: C. tropicalis 156; assay: Sensititre YeastOne antifungal susceptibility test; format: cell-based; conditions: Candida tropicalis
[8] = system: C. parapsilosis 571; assay: Sensititre YeastOne antifungal susceptibility test; format: cell-based; conditions: Lodderomyces parapsilosis
[9] = system: Cryptococcus neoformans 297; assay: Sensititre YeastOne antifungal susceptibility test; format: cell-based
[10] = system: Cr. laurentii 325m; assay: Sensititre YeastOne antifungal susceptibility test; format: cell-based; conditions: Papiliotrema laurentii
[11] = system: Aspergillus niger ATCC 16404; assay: Disc-diffusion antifungal assay; format: cell-based; conditions: 40 µg/disc; A. niger ATCC 16404
[12] = system: A. niger 1133 m; assay: Disc-diffusion antifungal assay; format: cell-based, Aspergillus niger; conditions: 40 µg/disc, pathogenic clinical isolate
[13] = system: A. fumigatus VKM F-37; assay: Disc-diffusion antifungal assay; format: cell-based, Aspergillus fumigatus; conditions: 40 µg/disc
[14] = system: A. fumigatus 390 m; assay: Disc-diffusion antifungal assay; format: cell-based, Aspergillus fumigatus; conditions: 40 µg/disc, pathogenic clinical isolate
[15] = system: A. terreus 3 K; assay: Disc-diffusion antifungal assay; format: cell-based; conditions: 40 µg/disc
[16] = system: A. terreus 497; assay: Disc-diffusion antifungal assay; format: cell-based; conditions: 40 µg/disc; A. terreus 497, pathogenic clinical isolate
[17] = system: reference and clinical strains of Aspergillus; assay: Disc-diffusion antifungal assay, Aspergillus strains; format: cell-based; conditions: disc-diffusion, reference and clinical strains of Aspergillus
[18] = system: A. niger ATCC 16404; assay: Broth two-fold microdilution MIC (CLSI); format: cell-based, Aspergillus niger; conditions: A. niger ATCC 16404; RPMI 1640 pH 7.0, 35 °C, 48 h, no visible growth
[19] = system: A. niger 1133 m; assay: Broth two-fold microdilution MIC (CLSI); format: cell-based, Aspergillus niger; conditions: A. niger 1133 m clinical isolate; RPMI 1640 pH 7.0, 35 °C, 48 h
[20] = system: A. terreus 3 K; assay: Broth two-fold microdilution MIC (CLSI); format: cell-based; conditions: A. terreus 3 K; RPMI 1640 pH 7.0, 35 °C, 48 h
[21] = system: A. terreus 497; assay: Broth two-fold microdilution MIC (CLSI); format: cell-based; conditions: A. terreus 497 clinical isolate; RPMI 1640 pH 7.0, 35 °C, 48 h
[22] = system: A. fumigatus VKM F-37; assay: Broth two-fold microdilution MIC (CLSI); format: cell-based, Aspergillus fumigatus; conditions: A. fumigatus VKM F-37; RPMI 1640 pH 7.0, 35 °C, 48 h
[23] = system: A. fumigatus 390 m; assay: Broth two-fold microdilution MIC (CLSI); format: cell-based, Aspergillus fumigatus; conditions: A. fumigatus 390 m clinical isolate; RPMI 1640 pH 7.0, 35 °C, 48 h
[24] = Sensititre YeastOne, Aspergillus niger 1133m clinical isolate, read-out: MIC
[25] = Sensititre YeastOne, A. fumigatus 390m clinical isolate, read-out: MIC
[26] = Sensititre YeastOne, A. terreus 497 clinical isolate, read-out: MIC
[27] = Sensititre YeastOne, Candida albicans 1402 clinical isolate, read-out: MIC
[28] = Sensititre YeastOne, C. glabrata 1402 clinical isolate, read-out: MIC
[29] = Sensititre YeastOne, C. krusei 1447 clinical isolate, read-out: MIC
[30] = Sensititre YeastOne, C. tropicalis 156 clinical isolate, read-out: MIC
[31] = Sensititre YeastOne, C. parapsilosis 571 clinical isolate, read-out: MIC
[32] = Sensititre YeastOne, Cryptococcus neoformans 297 clinical isolate, read-out: MIC
[33] = Sensititre YeastOne, Cr. laurentii 325m clinical isolate, read-out: MIC

| Compound | MIC ([1]; Aspergillus niger, 1133M) [µg/mL] | MIC ([2]; 390M) [µg/mL] | MIC [3]; 497 [µg/mL] | MIC ([4]; Candida albicans, 1402) [µg/mL] | MIC [5]; 1402 [µg/mL] | MIC [6]; 1447 [µg/mL] | MIC [7]; 156 [µg/mL] | MIC [8]; 571 [µg/mL] | MIC ([9]; Cryptococcus neoformans, 297) [µg/mL] | MIC ([10]; 325M) [µg/mL] | MIC [1, 24] [µg/mL] | MIC [2, 25] [µg/mL] | MIC [3, 26] [µg/mL] | MIC [4, 27] [µg/mL] | MIC [5, 28] [µg/mL] | MIC [6, 29] [µg/mL] | MIC [7, 30] [µg/mL] | MIC [8, 31] [µg/mL] | MIC [9, 32] [µg/mL] | MIC [10, 33] [µg/mL] | further results |
| --- | --- | --- | --- | --- | --- | --- | --- | --- | --- | --- | --- | --- | --- | --- | --- | --- | --- | --- | --- | --- | --- |
| CC(=O)N1CCN(c2ccc(OCC3COC(Cn4ccnc4)(c4ccc(Cl)cc4Cl)O3)cc2)CC1 (centres unmarked) [KZ, ketoconazole] | 16 (≈ 30.1 µM) | 8 (≈ 15.1 µM) | 8 (≈ 15.1 µM) | 4 (≈ 7.53 µM) | 4 (≈ 7.53 µM) | 0.5 (≈ 0.941 µM) | 0.5 (≈ 0.941 µM) | 0.5 (≈ 0.941 µM) | 0.06 (≈ 0.113 µM) | 0.12 (≈ 0.226 µM) |  |  |  |  |  |  |  |  |  |  |  |
| CC[C@@H]([C@H](C)O)n1ncn(-c2ccc(N3CCN(c4ccc(OC[C@@H]5CO[C@@](Cn6cncn6)(c6ccc(F)cc6F)C5)cc4)CC3)cc2)c1=O [PZ, posaconazole] |  |  |  |  |  |  |  |  |  |  | 0.5 (≈ 0.713 µM) | 0.25 (≈ 0.357 µM) | 0.12 (≈ 0.171 µM) | 0.5 (≈ 0.713 µM) | > 8 | 0.5 (≈ 0.713 µM) | > 8 | 1 (≈ 1.43 µM) | 0.25 (≈ 0.357 µM) | 1 (≈ 1.43 µM) |  |
| CCC(C)n1ncn(-c2ccc(N3CCN(c4ccc(OCC5COC(Cn6cncn6)(c6ccc(Cl)cc6Cl)O5)cc4)CC3)cc2)c1=O (centres unmarked) [IZ, itraconazole] |  |  |  |  |  |  |  |  |  |  | 1 (≈ 1.42 µM) | 0.25 (≈ 0.354 µM) | 0.25 (≈ 0.354 µM) | 0.5 (≈ 0.709 µM) | > 16 | 0.5 (≈ 0.709 µM) | > 16 | 0.5 (≈ 0.709 µM) | 0.5 (≈ 0.709 µM) | 0.12 (≈ 0.17 µM) |  |
| CCCCCOc1ccc(-c2cc(-c3ccc(C(=O)N[C@H]4C[C@@H](O)[C@@H](O)NC(=O)[C@@H]5[C@@H](O)[C@@H](C)CN5C(=O)[C@H]([C@H](O)CC(N)=O)NC(=O)[C@H]([C@H](O)[C@@H](O)c5ccc(O)c(OS(=O)(=O)O)c5)NC(=O)[C@@H]5C[C@@H](O)CN5C(=O)[C@H]([C@@H](C)O)NC4=O)cc3)no2)cc1 [MF, micafungin] (X1-[Orn(4R-OH,5R-OH)]T[Hyp][hTyr(3S-OH,4S-OH,3'-OSO3H)][Gln(3R-OH)][Pro(3S-OH,4S-Me)]; lactam 1-C) | > 8 | > 8 | > 8 | 0.03 (≈ 0.0236 µM) | 0.015 (≈ 0.0118 µM) | 0.12 (≈ 0.0945 µM) | 0.03 (≈ 0.0236 µM) | 1 (≈ 0.787 µM) | > 8 | > 8 |  |  |  |  |  |  |  |  |  |  |  |
| Methyldecanoyl-MePro-AHMOD-Ser-Aib-Ile-Iva-βAla-Alaol-Glyol [EmiC, emericellipsin C, homologue of emericellipsin A, nonribosomal peptaibol] |  |  |  |  |  |  |  |  |  |  |  |  |  |  |  |  |  |  |  |  | Zone of Inhibition [11]: 9 ± 0.31 mm; Zone of Inhibition [12]: 0 mm; Zone of Inhibition [13]: 0 mm; Zone of Inhibition [14]: 0 mm; Zone of Inhibition [15]: 0 mm; Zone of Inhibition [16]: 0 mm; antifungal activity against Aspergillus strains (in words) [17]: low activity only against A. niger strains; Minimal Inhibitory Concentration (MIC) [18]: 32 µg/mL; Minimal Inhibitory Concentration (MIC) [19]: 32 µg/mL; Minimal Inhibitory Concentration (MIC) [20]: 8 µg/mL; Minimal Inhibitory Concentration (MIC) [21]: 8 µg/mL; Minimal Inhibitory Concentration (MIC) [22]: 16 µg/mL; Minimal Inhibitory Concentration (MIC) [23]: 16 µg/mL |
| Nc1[nH]c(=O)ncc1F [Emi 5-FC, flucytosine] | > 64 | > 64 | > 64 | 0.06 (≈ 0.465 µM) | 0.06 (≈ 0.465 µM) | 32 (≈ 248 µM) | 0.06 (≈ 0.465 µM) | 0.5 (≈ 3.87 µM) | 8 (≈ 62 µM) | 4 (≈ 31 µM) |  |  |  |  |  |  |  |  |  |  |  |
| C[C@@H](c1ncncc1F)[C@](O)(Cn1cncn1)c1ccc(F)cc1F [VOR, voriconazole] |  |  |  |  |  |  |  |  |  |  | 8 (≈ 22.9 µM) | 0.5 (≈ 1.43 µM) | 0.25 (≈ 0.716 µM) | 1 (≈ 2.86 µM) | 8 (≈ 22.9 µM) | 1 (≈ 2.86 µM) | 4 (≈ 11.5 µM) | 1 (≈ 2.86 µM) | 0.25 (≈ 0.716 µM) | 0.5 (≈ 1.43 µM) |  |
| CCCCCOc1ccc(-c2ccc(-c3ccc(C(=O)N[C@H]4C[C@@H](O)[C@@H](O)NC(=O)[C@@H]5[C@@H](O)[C@@H](C)CN5C(=O)[C@H]([C@@H](C)O)NC(=O)[C@H]([C@H](O)[C@@H](O)c5ccc(O)cc5)NC(=O)[C@@H]5C[C@@H](O)CN5C(=O)[C@H]([C@@H](C)O)NC4=O)cc3)cc2)cc1 [AND, anidulafungin] ({pTerphenylCO(4''-OnC5H11)}-[Orn(4R-OH,5R-OH)]T[Hyp][hTyr(3S-OH,4S-OH)]T[Pro(3S-OH,4S-Me)]; lactam 1-C) | > 8 | > 8 | > 8 | 0.06 (≈ 0.0526 µM) | 0.06 (≈ 0.0526 µM) | 0.03 (≈ 0.0263 µM) | 0.12 (≈ 0.105 µM) | 2 (≈ 1.75 µM) | > 8 | > 8 |  |  |  |  |  |  |  |  |  |  |  |
